According to patent US20160312179A1 (GLAXOSMITHKLINE INTELLECHTUAL PROPERTY (NO.2) LIMITED, priority 2013, published 2016):
Entries after “also recorded” stand apart in the source; their conditions may differ.

How the values were obtained:
Type in all cases: cell-based, Chinese hamster
DG44 CHO [1] = assay: DOE interaction study in shake flasks: ammonia (NH4+) accumulation and production; settings: for effect on ammonia (NH4+) generation / accumulation: single intermediate at selected concentration
Procedure: The experiment to test interactions of all the selected components was carried out in two blocks. Each one of the blocks was designed to contain center points and control shake flasks (batch cultures, no addition of any component). […] All conditions were run in duplicates. Shake flask cultures were sampled every other day to determine Total Cell Concentration (TCC), Viable Cell Concentration (VCC), cell viability, metabolite (glucose, lactate, glutamine, glutamate, and ammonia) concentration, and osmolality. The master sample was divided into cell-based assays (TCC, viability assays) and cell-free assays (metabolite concentration, osmolality). Back-up samples (cell-free supernatants) for future reference were produced by centrifuging a portion of the master sample and aliquoting 1.8 mL in Nunc cryovials which were subsequently stored at −70° C. Titer was determined on samples filtered through a 0.22 μm-filter. TCC, VCC and viability were determined using an automated cell counter based on the trypan blue exclusion method (ViCell XR, Beckman Coulter). Samples were pre-treated with protease prior to cell counting (TripLE, Life Technologies, USA) using equal volumes of protease stock solution and culture. Incubation to allow dissociation was carried out for 20-25 minutes at 37° C. under gentle shaking Metabolites were measured using Nova Bioprofile (Nova Bioprofile 400); which operates on enzyme-based electrochemical reactions. Osmolality measurement was based on the freezing-point depression method (Advanced Instruments, Model N/A). Filtered cell-free samples were sent to the Bioanalytical Development group for antibody accumulation and binding activity determination (Biacore).

DG44 CHO [2] = assay: Dose response study of TCA intermediates in fed-batch shake flasks: viable cell concentration / viability; settings: for effect on cell growth / viable cell concentration after addition: dose response, all concentrations tested, compared to control culture
Text: Several TCA cycle intermediates were selected for a dose response experiment based on commercial availability, either the acid or its sodium salt were purchased from Sigma Aldrich to prepare stock solution feeds to be used in the study.
FIG. 1 summarizes the TCA cycle components tested and their location in the pathway. Table 1 summarizes the operation condition of shake flasks in the study as well as feed schedules for the dose response study.
(§1) Control shake flasks were set up every time an arm of the study started. Those control shake flasks were fed-batch cultures without addition of any TCA intermediate. All conditions tested were executed in duplicate shake flasks.
(§2) Shake flask cultures were sampled every other day to determine Total Cell Concentration (TCC), Viable Cell Concentration (VCC), cell viability, metabolite (glucose, lactate, glutamine, glutamate, and ammonia) concentration, and osmolality. The master sample was divided into cell-based assays (TCC, viability assays) and cell-free assays (metabolite concentration, osmolality). Back-up samples (cell-free supernatants) for future reference were produced by centrifuging a portion of the master sample and aliquoting 1.8 mL in Nunc cryovials which were subsequently stored at −70° C. Titer was determined on samples filtered through a 0.22 μm-filter.
(§3) TCC, VCC and viability were determined using an automated cell counter based on the trypan blue exclusion method (ViCell XR, Beckman Coulter). Samples were pre-treated with protease prior to cell counting (TripLE, Life Technologies, USA) using equal volumes of protease stock solution and culture. Incubation to allow dissociation was carried out for 20-25 minutes at 37° C. under gentle shaking Metabolites were measured using Nova Bioprofile (Nova Bioprofile 400); which operates on enzyme-based electrochemical reactions. Osmolality measurement was based on the freezing-point depression method (Advanced Instruments, Model N/A). Filtered cell-free samples were sent to the Bioanalytical Development group for antibody accumulation and binding activity determination (Biacore).

DG44 CHO [3] = assay: Dose response study in shake flasks: ammonia (NH4+) accumulation and production; settings: for effect on ammonia (NH4+) accumulation: dose response, intermediate used alone, compared to control culture
Procedure: (§4) Several TCA cycle intermediates were selected for a dose response experiment based on commercial availability, either the acid or its sodium salt were purchased from Sigma Aldrich to prepare stock solution feeds to be used in the study. Selected compounds were pyruvic acid, citric acid, α-ketoglutaric acid, fumaric acid, malic acid (or sodium salts), and oxaloacetic acid (no sodium salt available).
(§5) Oxaloacetic acid and malic acid were added to the culture to a final concentration of 5 mM, 10 mM and 15 mM. […] FIG. 1 summarizes the TCA cycle components tested and their location in the pathway. Table 1 summarizes the operation condition of shake flasks in the study as well as feed schedules for the dose response study.
as §1, §2, §3

DG44 CHO [4] = assay: Dose response study in shake flasks: cell-specific productivity
Procedure: as §4, §5, §1
Shake flask cultures were sampled every other day to determine Total Cell Concentration (TCC), Viable Cell Concentration (VCC), cell viability, metabolite (glucose, lactate, glutamine, glutamate, and ammonia) concentration, and osmolality. The master sample was divided into cell-based assays (TCC, viability assays) and cell-free assays (metabolite concentration, osmolality). […] Titer was determined on samples filtered through a 0.22 μm-filter.
(§6) TCC, VCC and viability were determined using an automated cell counter based on the trypan blue exclusion method (ViCell XR, Beckman Coulter). […] Incubation to allow dissociation was carried out for 20-25 minutes at 37° C. under gentle shaking Metabolites were measured using Nova Bioprofile (Nova Bioprofile 400); which operates on enzyme-based electrochemical reactions. […]
Integral of Viable Cells was calculated using VCC data and applying the trapezoid rule following the formula,
Specific Productivity was calculated using the last titer data point divided by last calculated IVC value.

DG44 CHO [5] = assay: Dose response study in shake flasks: lactate accumulation; settings: 45 mM added to the culture
Procedure: as §4
Oxaloacetic acid and malic acid were added to the culture to a final concentration of 5 mM, 10 mM and 15 mM. […] FIG. 1 summarizes the TCA cycle components tested and their location in the pathway. Table 1 summarizes the operation condition of shake flasks in the study as well as feed schedules for the dose response study. […]
Shake flask cultures were sampled every other day to determine Total Cell Concentration (TCC), Viable Cell Concentration (VCC), cell viability, metabolite (glucose, lactate, glutamine, glutamate, and ammonia) concentration, and osmolality. […] Titer was determined on samples filtered through a 0.22 μm-filter.
as §6

DG44 CHO [6] = assay: DOE interaction study in shake flasks: cell-specific productivity; settings: 20 mM, alone
Procedure: The experiment to test interactions of all the selected components was carried out in two blocks. Each one of the blocks was designed to contain center points and control shake flasks (batch cultures, no addition of any component). […] All conditions were run in duplicates. Shake flask cultures were sampled every other day to determine Total Cell Concentration (TCC), Viable Cell Concentration (VCC), cell viability, metabolite (glucose, lactate, glutamine, glutamate, and ammonia) concentration, and osmolality. The master sample was divided into cell-based assays (TCC, viability assays) and cell-free assays (metabolite concentration, osmolality). […] Titer was determined on samples filtered through a 0.22 μm-filter. TCC, VCC and viability were determined using an automated cell counter based on the trypan blue exclusion method (ViCell XR, Beckman Coulter). […] Incubation to allow dissociation was carried out for 20-25 minutes at 37° C. under gentle shaking Metabolites were measured using Nova Bioprofile (Nova Bioprofile 400); which operates on enzyme-based electrochemical reactions. […] Integral of Viable Cells was calculated using VCC data and applying the trapezoid rule following the formula, Specific Productivity was calculated using the last titer data point divided by last calculated IVC value.

## O=C(O)CC(O)C(=O)O (stereo not shown) [malic acid]
DG44 CHO [1]
  effect on ammonia (NH4+) generation / accumulation: suppress ammonia generation for a few days
DG44 CHO [1]; listed as malate
  effect on ammonia (NH4+) generation / accumulation: partially reduced
DG44 CHO [2]; 5 mM
  decline in viability compared to control shake flasks: no decline in viability
DG44 CHO [2]; 30 mM
  decline in viability: fastest decline in viability
DG44 CHO [2]; dose response experiment
  concentrations toxic to cells: higher than 5 mM
DG44 CHO [2]; high concentration (15 mM and 30 mM)
  cell viability of the culture: induced loss of cell viability
DG44 CHO [3]; 5 mM
  effect on NH4+ accumulation or production: not a clear effect

## CC(=O)C(=O)O [pyruvic acid]
DG44 CHO [1]
  effect on ammonia (NH4+) generation / accumulation: suppress ammonia generation for a few days
DG44 CHO [1]; listed as pyruvate
  effect on ammonia (NH4+) generation / accumulation: partially reduced
DG44 CHO [4]; 45 mM, control averaged 31 pg/cell/day
  cell-specific productivity: ~24 pg/cell/day
DG44 CHO [3]; 15 mM
  ammonia accumulated, compared to control shake flasks: slightly higher level than that found in control shake flasks
  effect on the reduction of ammonia: minor effect on the reduction of ammonia
DG44 CHO [3]; 30 mM
  ammonia accumulated to: 8 mM
  ammonia consumption effect lasted to culture day: 8 days
DG44 CHO [3]; 45 mM added on Day 5
  ammonia consumption induced up to culture day: 10 days
  final ammonia concentration: 7 mM
DG44 CHO [3]
  effect on ammonia (NH4+) accumulation: dependent on the dose, but the effect lasts only for a few days
DG44 CHO [5]
  lactate accumulation: around 3 g/L

## O=C(O)/C=C/C(=O)O [fumaric acid]
DG44 CHO [1]
  effect on ammonia (NH4+) generation / accumulation: slows down
DG44 CHO [2]
  effect on cell growth / viable cell concentration after addition: reduced cell growth
DG44 CHO [3]; after Day 10 of culture
  doses needed to stabilize ammonia production (and accumulation): 30 mM and 45 mM
DG44 CHO [3]
  effect on ammonia (NH4+) accumulation: only partial effect

## O=C(O)CC(=O)C(=O)O [oxaloacetic acid]
DG44 CHO [1]
  effect on ammonia (NH4+) generation / accumulation: partially reduced
DG44 CHO [4]; dose response, compared to control
  effect on final cell-specific productivity: sustained cell-specific productivity values
DG44 CHO [2]
  effect on cell growth / viable cell concentration after addition: did not have any deleterious effect on cell growth
DG44 CHO [3]; 10 mM and 15 mM
  cell-specific production rate and NH4+ accumulation: reduce
DG44 CHO [3]; dose response conclusion
  concentrations in the culture that control ammonia and maintain cell-specific productivity: 5 to 15 mM
DG44 CHO [3]
  effect on ammonia (NH4+) accumulation: reduction in the ammonia accumulation levels

## O=C(O)CC(O)(CC(=O)O)C(=O)O [citric acid]
DG44 CHO [2]
  effect on cell growth / viable cell concentration after addition: deleterious effects on culture

## O=C(O)CCC(=O)C(=O)O [α-ketoglutaric acid]
DG44 CHO [1]; 20 mM, alone
  effect on ammonia generation: control ammonia generation
DG44 CHO [1]
  effect on ammonia (NH4+) generation / accumulation: consumed
DG44 CHO [4]; used alone (FIGS. 21 and 22)
  reduction of the cell-specific productivity compared to the control: 10-20%
DG44 CHO [2]
  effect on cell growth / viable cell concentration after addition: cell division seems to stop
DG44 CHO [6]
  cell-specific productivity: ~30 pg/cell/day
DG44 CHO [3]; 15, 30, 45 mM tested
  most effective concentration to reduce production of NH4+: 45 mM
DG44 CHO [3]; all concentrations tested
  cell-specific NH4+ production rate: reduced
DG44 CHO [3]; listed as α-KG
  effect on ammonia (NH4+) accumulation: reduced; also recorded: most effective
